Test results taken from paper PMC12635197, “Discovery of first-in-class inhibitors of the TRF1:TIN2 protein:protein interaction by fragment screening” (Scientific Reports, 2025).

How the values were obtained:
TRF1TRFH [1] = biological target: T1, TRF1TRFH (Homo sapiens, UniProt P54274); assay: LO-NMR CPMG assay (relaxation-edited), singletons; format: binding; settings: single experiment; for CPMG reduction: average peak intensity reduction on addition of TRF1TRFH, 250 µM ligand, 20 µM protein; for CPMG recovery: net recovery of peak intensity on addition of TIN2TBM peptide (40 µM) to compound plus protein
T1 construct: encoding residues 47–268, UniProt identifier P54274-1; His6-MBP (TEV-cleavable) (N, cleaved yes); made in house; host or cells: E. coli BL21-CodonPlus(DE3)-RIL
T1 sequence (P54274 47-268): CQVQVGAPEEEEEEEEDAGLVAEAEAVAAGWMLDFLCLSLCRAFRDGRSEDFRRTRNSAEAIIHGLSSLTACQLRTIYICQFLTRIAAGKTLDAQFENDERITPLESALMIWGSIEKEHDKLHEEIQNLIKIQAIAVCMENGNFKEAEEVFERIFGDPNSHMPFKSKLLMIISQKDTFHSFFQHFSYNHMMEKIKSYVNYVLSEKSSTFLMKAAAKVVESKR
Description: We next used a LO-NMR CPMG assay to orthogonally validate XChem hits in solution, aiming to eliminate false positives and rank hit matter for follow-up studies. Compounds were tested as singletons and prepared in two samples containing either compound alone (sample 1) or compound + TRF1TRFH (sample 2).
The fragment screen by LO-NMR was carried out using conditions described previously, with some modifications. Fragments were dispensed in triplicate into a 384-well plate using an Echo 550 liquid handler to give a final ligand concentration of 250 µM (total sample volume of 40 µL). 40 µL of TRF1TRFH protein (in NMR buffer; 20 µM final protein concentration in the assay) were added to the ‘protein’ samples; 40 µL of TRF1TRFH protein and TIN2TBM peptide (21-mer, Ac-[…]-CONH2; 40 µM final concentration in the assay) were both added to the ‘competitor’ samples; 40 µL NMR buffer were added to the ‘compound-only’ samples. Solutions were transferred to 1.7-mm NMR tubes using a Bruker SamplePro Tube robotics system. ^1H NMR spectra were recorded on a Bruker AVIII 500 MHz spectrometer at 298 K, equipped with a 1.7-mm TXI probe, with samples in 1.7-mm SampleJET NMR tubes (Bruker). DMSO and water signals were dampened. A relaxation spin filter was applied at 400 ms. Data were processed using Bruker Topspin 4.0. Lines were broadened with LB = 3.0, and the baseline was corrected between 6.0 and 10.0 ppm.
The data were then analysed using the MNova Screen software. Only peaks between 5.5 and 9.5 ppm were considered. Peaks with a height of < 5% maximum peak height within the region of interest were considered noise, and the minimum matched peak level was set at > 51%. The relative peak intensity change (I) was calculated for all peaks in the 5.5–9.5 ppm region, for each compound, as described previously. The average integral for all peaks between 6.0 and 10.0 ppm was calculated, and the differences between compound-only, compound-plus-protein, and compound-plus-protein-plus-competitor samples were compared. The net recovery was calculated by subtracting the reduction in peak integral of the compound-plus-protein samples from the compound-plus-protein-plus-competitor samples.
For hit validation, relaxation-edited LO-NMR experiments were repeated as described above on single compounds instead of fragment cocktails.

[2] = Fragment solubility assay (quantitative 1H NMR); format: physicochemical; settings: NMR buffer, overnight incubation, 1H NMR quantified against 1 mM caffeine standard
Description: Aqueous solubility test samples were prepared by adding 3.6 µL compound (50 mM stock in 100% DMSO-d6) to 176.4 µL NMR buffer in a microcentrifuge tube. The samples were incubated overnight and transferred to a 3-mm NMR tube (Bruker, Part No. Z112272). ^1H NMR spectra were recorded, with the DMSO and water signals dampened. 1 mM caffeine (Sigma, C1778 in PBS (pH 7.4) with 1% DMSO-d6) was used as a standard to quantify the ligand signals and determine the concentration of samples.
NMR data were collected on a Bruker Avance Neo 600-MHz spectrometer equipped with a 5 mm TCI-CryoProbe. The ^1H spectrum was referenced to the internal deuterated solvent. The operating frequency for ^1H was 600 MHz. All NMR data were acquired at the temperature of 298 K. All data were acquired and processed using Bruker Topspin 4.0. The quantitative ^1H-NMR spectrum was acquired using a Bruker standard 1D lc1pngppsf2 pulse sequence with 32 scans. The sweep width was 6.2 ppm with O1P set to 8.8 ppm, and the FID contained 16k time-domain data points. Relaxation delay was set to 20 s. Water signal was suppressed.

TRF1TRFH [3] = biological target: T1, TRF1TRFH; assay: LO-NMR R2KD assay; format: binding; settings: for Kd: global KD shared across 1H NMR peaks, single experiment, 95% CI in parentheses, 2 µM TRF1TRFH
Description: Recent work by Liu and colleagues introduced a novel LO-NMR method that can be used to quantitatively determine the dissociation constant (KD) of a ligand for a protein from measured R2 values of ligand nuclei at a range of ligand concentrations.
The R2KD assay was carried out as described by Liu et al.[40]. A Bruker SamplePro liquid handler was used to prepare 10 samples: 8 samples containing an increasing ligand concentration from 50 to 500 µM whilst maintaining a constant TRF1TRFH concentration (2 µM final); and two samples containing ligand only at 200 µM and 400 µM. All ten samples were prepared from stock solutions of ligand, DMSO, protein and buffer alone using the Bruker SamplePro liquid handler prior to transfer to 3-mm NMR tubes.
NMR data were collected at 298 K on a Bruker Avance Neo 600-MHz spectrometer using the Bruker Topspin 4.0 software. T2 relaxation experiments were performed using the standard Bruker CPMG pulse program with Excitation Sculpting incorporated to suppress water signal. The spin-echo period (delay-180°-delay) was set to 1 ms (d20 = 500 µs), and the relaxation delay (d1) was set to 10 s. The sudo-2D experiment contained nine slices with the spin echo period repeated at the following times: 4, 20, 100, 200, 300, 500, 700, 1000, and 2000 ms. T2 relaxation data were processed using the MestReNova 14.1 data analysis module to obtain integrals of individual[1]H-NMR signals, which were used to calculate R2 with the equation I = I0e^(−tR2). GraphPad Prism 9.0.0 was used to fit R2 values of individual compound peaks to obtain an overall (shared) KD value from all peaks of the compound.

[4] = biological target: T2, TRF1TRFH:TIN2-FAM interaction (Homo sapiens, UniProt P54274); assay: Fluorescence polarisation (FP) competition assay, TIN2-FAM displacement; format: binding; settings: 0.6 µM TRF1TRFH, 25 nM TIN2-FAM; mean of three independent experiments, 95% CI in parentheses
T2 construct: encoding residues 47–268, UniProt identifier P54274-1; His6-MBP (TEV-cleavable) (N, cleaved yes); made in house; host or cells: E. coli BL21-CodonPlus(DE3)-RIL (TRF1TRFH); probe peptide from Pepceuticals
T2 sequence (P54274 47-268): T1 sequence (P54274 47-268)
Description: To complement the biophysical R2KD assay, we developed a fluorescence polarisation (FP) competition assay based on a TIN2TBM peptide labelled with an N-terminal 5(6)-carboxyfluorescein (6-FAM) fluorophore. […] The NMR hit analogues were then titrated against constant concentrations of TRF1TRFH and TIN2-FAM (0.6 µM and 25 nM, respectively).
A TIN2TBM peptide was obtained from Pepceuticals with a 5(6)-carboxyfluorescein (FAM) fluorophore added to the N-terminus for fluorescence studies. To determine the assay window for the FP assay, the TIN2-FAM probe was prepared as a 16-µM stock in aqueous buffer and titrated from 0 to 400 nM against either a constant concentration of TRF1TRFH (0.5 µM in FP buffer) or FP buffer alone (25 mM HEPES-NaOH pH 7.5, 100 mM NaCl, 1 mM TCEP, 0.05% w/v CHAPS). Samples were prepared to a final volume of 10 µL in Packard Proxiplate 384 F plus plates; plates were incubated in darkness at room temperature for 1 h prior to measuring fluorescence intensities and calculating FP values, using a BMG Labtech PHERAstar FSX plate reader with an FP 485 520 520 optic module. A settling time of 0.3 s was used, and the number of flashes was set to 200 for FP measurements. For each plate, a target mP of 35 was set and the gain adjusted on the TIN2-FAM probe control well minus protein.
For the FP competition assay, the unlabelled compounds (from 50-mM DMSO stocks) were first dispensed in duplicate into wells of a Proxiplate 384 F Plus plate using an Echo 550 acoustic liquid handler to give a 13-point concentration range from 0.2 to 500 µM. Wells were then backfilled to 250 nL with DMSO before the addition of 5 µL of 2x TRF1TRFH (0.6 µM final concentration) and 4.75 µL 2x TIN2-FAM (25 nM final concentration). Plates were spun and sealed prior to incubation for 1 h in darkness. FP measurements were then carried out as described above.

Row | CPMG reduction (TRF1TRFH [1]) | Kin. Sol. [2] | CPMG recovery (TRF1TRFH [1]) | Kd (TRF1TRFH [3]) | increase in affinity relative to ethoxy parent 27 (TRF1TRFH [3]; R2KD assay) | IC50 [4] | Compound
1 | 13% | – | – | – | – | – | O=C(NC1CC1)c1cnn2cccnc12 [Compound 1]
2 | 12% | – | – | – | – | – | CN(C)C(=O)COc1cccc(F)c1 [Compound 6]
3 | 0% | – | – | – | – | – | NS(=O)(=O)c1ccccc1OC(F)F [Compound 15]
4 | 22% | – | – | – | – | – | c1ccc(-c2noc(C3CCC3)n2)nc1 [Compound 16]
5 | 96% | 810 µM | 49% | 280 µM | – | – | CCOc1ccc(S(=O)(=O)O)c2ccccc12 [Compound 27]
6 | 87% | 610 µM | 22% | – | – | – | COc1ccc(S(=O)(=O)O)c2ccccc12 [Compound 28, 4-methoxy-1-naphthalenesulfonic acid]
7 | – | 840 µM | – | > 1000 µM | – | – | O=S(=O)(O)c1ccc(O)c2ccccc12 [Compound 29, 1-naphthol-4-sulfonic acid]
8 | 83% | 860 µM | 4% | > 1000 µM | – | – | CC(C)Oc1ccc(S(=O)(=O)[O-])c2ccccc12.[Na+] [Compound 30]
9 | 100% | 850 µM | 29% | 61 µM | five-fold increase in affinity | 150 µM | O=S(=O)(O)c1ccc(OCc2ccccc2)c2ccccc12 [Compound 32]
10 | 79% | 50 µM | 1% | – | – | – | CCOc1ccc(S(N)(=O)=O)c2ccccc12 [Compound 33, 4-ethoxynaphthalene-1-sulfonamide]
11 | 28% | 895 µM | 20% | – | – | – | CCOc1ccc(C(=O)O)c2ccccc12 [Compound 34, 4-ethoxy-1-naphthoic acid]
12 | – | < 50 µM | – | – | – | – | CCOc1ccc(S(=O)(=O)N(C)C)c2ccccc12 [Compound 35]
13 | – | 0 µM | – | – | – | – | CCOc1ccc(S(=O)(=O)NCc2ccccc2)c2ccccc12 [Compound 36]
14 | – | 460 µM | – | 83 µM | – | 200 µM | Cc1cccc(COc2ccc(S(=O)(=O)[O-])c3ccccc23)c1.[Na+] [Compound 37]
15 | – | 570 µM | – | 53 µM | – | 150 µM | COc1cccc(COc2ccc(S(=O)(=O)[O-])c3ccccc23)c1.[Na+] [Compound 38]
16 | – | 320 µM | – | 110 µM | – | 170 µM | COc1ccccc1COc1ccc(S(=O)(=O)[O-])c2ccccc12.[Na+] [Compound 39]
17 | – | 590 µM | – | 46 µM | – | 23 µM | CCCOc1cccc(COc2ccc(S(=O)(=O)[O-])c3ccccc23)c1.[Na+] [Compound 41]
18 | – | 260 µM | – | – | – | 80 µM | O=S(=O)([O-])c1ccc(OCc2cccc(OC(F)(F)F)c2)c2ccccc12.[Na+] [Compound 42]
19 | – | 500 µM | – | 140 µM | – | 180 µM | O=S(=O)([O-])c1ccc(OCc2cccc(Cl)c2)c2ccccc12.[Na+] [Compound 43]
20 | – | 160 µM | – | – | – | 110 µM | O=S(=O)([O-])c1ccc(OCc2cccc(Br)c2)c2ccccc12.[Na+] [Compound 44]
